The target of experiment [1] is T1, baculovirus-expressed ALK (Homo sapiens, UniProt Q9UM73).
T1 construct: host or cells: baculovirus expression system
Briefly: ALK Kinase Assay (ELISA-type, time-resolved fluorescence). The format is biochemical. In outline:
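Plates coated with phospholipase C-γ substrate (10 μg/mL in TBS); reaction started with 30 ng/ml ALK and run 15 min at 37° C. Phosphorylated substrate detected with Eu-N1-labeled PT66 antibody. IC50 from sigmoidal variable-slope fit of percent inhibition vs log concentration.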
In general terms: An ELISA detects its analyte on a solid surface through an enzyme-linked reagent.

Experiment [2] deals with T2, c-Met (cytoplasmic domain) (Homo sapiens, UniProt P08581).
T2 construct: 10 ng/mL c-Met (cytoplasmic domain, Invitrogen Corporation #PV3143); purchased Invitrogen Corporation PV3143
T2 sequence (P08581 956-1390 limits assumed): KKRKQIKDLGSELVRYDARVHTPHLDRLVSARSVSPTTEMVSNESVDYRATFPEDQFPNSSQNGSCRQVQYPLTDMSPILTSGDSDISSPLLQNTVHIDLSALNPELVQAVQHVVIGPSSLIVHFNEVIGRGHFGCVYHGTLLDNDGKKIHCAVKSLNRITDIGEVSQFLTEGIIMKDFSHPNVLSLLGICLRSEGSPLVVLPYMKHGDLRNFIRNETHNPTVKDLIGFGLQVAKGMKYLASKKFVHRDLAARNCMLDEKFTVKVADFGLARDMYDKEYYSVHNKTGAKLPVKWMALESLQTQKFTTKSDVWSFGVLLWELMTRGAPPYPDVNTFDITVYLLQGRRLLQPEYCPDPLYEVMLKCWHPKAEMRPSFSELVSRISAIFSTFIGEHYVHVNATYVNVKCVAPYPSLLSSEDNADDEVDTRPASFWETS
Briefly: c-Met Kinase Assay (same methods as for ALK, with modifications). It counts as biochemical. Put shortly: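 Plates were coated with phospholipase C-γ substrate (10 μg/mL) in TBS, and the reaction was started with 10 ng/mL c-Met cytoplasmic domain and run 15 min at 37 °C. Phosphoproduct was detected with Eu-N1-labelled PT66 antibody. IC50 came from a variable-slope sigmoidal fit of percent inhibition vs log concentration.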

[3] abbreviates: ALK kinase inhibition, 1 μM ATP, read-out: ALK Activity.
Where [4] appears, read: c-Met kinase inhibition, 1 μM ATP, read-out: cMet Activity.
The mark [5] stands for this setting: 1 μM ATP (Km level), 30 ng/ml ALK, 37° C., 15 minutes, read-out: ALK Activity (ALK kinase inhibition, IC50 class).
Setting [6] is: 1 μM ATP (Km level), 10 ng/mL c-Met, read-out: cMet Activity (c-Met kinase inhibition, IC50 class).
The mark [7] stands for this setting: 1 μM ATP (Km level), read-out: ALK Activity (ALK Kinase Inhibition, IC50).
The mark [8] stands for this setting: 1 μM ATP (Km level), read-out: cMet Activity (c-Met Kinase Inhibition, IC50).
Setting [9] is: ALK kinase inhibition, 1 μM ATP (Km level), read-out: ALK Activity.
The mark [10] stands for this setting: c-Met kinase inhibition, 1 μM ATP (Km level), read-out: cMet Activity.

Like-named read-outs stand apart in the source and are kept apart here. Where only a bound is given, the exact number is not on record here.

T1 sequence (Q9UM73 19-1620): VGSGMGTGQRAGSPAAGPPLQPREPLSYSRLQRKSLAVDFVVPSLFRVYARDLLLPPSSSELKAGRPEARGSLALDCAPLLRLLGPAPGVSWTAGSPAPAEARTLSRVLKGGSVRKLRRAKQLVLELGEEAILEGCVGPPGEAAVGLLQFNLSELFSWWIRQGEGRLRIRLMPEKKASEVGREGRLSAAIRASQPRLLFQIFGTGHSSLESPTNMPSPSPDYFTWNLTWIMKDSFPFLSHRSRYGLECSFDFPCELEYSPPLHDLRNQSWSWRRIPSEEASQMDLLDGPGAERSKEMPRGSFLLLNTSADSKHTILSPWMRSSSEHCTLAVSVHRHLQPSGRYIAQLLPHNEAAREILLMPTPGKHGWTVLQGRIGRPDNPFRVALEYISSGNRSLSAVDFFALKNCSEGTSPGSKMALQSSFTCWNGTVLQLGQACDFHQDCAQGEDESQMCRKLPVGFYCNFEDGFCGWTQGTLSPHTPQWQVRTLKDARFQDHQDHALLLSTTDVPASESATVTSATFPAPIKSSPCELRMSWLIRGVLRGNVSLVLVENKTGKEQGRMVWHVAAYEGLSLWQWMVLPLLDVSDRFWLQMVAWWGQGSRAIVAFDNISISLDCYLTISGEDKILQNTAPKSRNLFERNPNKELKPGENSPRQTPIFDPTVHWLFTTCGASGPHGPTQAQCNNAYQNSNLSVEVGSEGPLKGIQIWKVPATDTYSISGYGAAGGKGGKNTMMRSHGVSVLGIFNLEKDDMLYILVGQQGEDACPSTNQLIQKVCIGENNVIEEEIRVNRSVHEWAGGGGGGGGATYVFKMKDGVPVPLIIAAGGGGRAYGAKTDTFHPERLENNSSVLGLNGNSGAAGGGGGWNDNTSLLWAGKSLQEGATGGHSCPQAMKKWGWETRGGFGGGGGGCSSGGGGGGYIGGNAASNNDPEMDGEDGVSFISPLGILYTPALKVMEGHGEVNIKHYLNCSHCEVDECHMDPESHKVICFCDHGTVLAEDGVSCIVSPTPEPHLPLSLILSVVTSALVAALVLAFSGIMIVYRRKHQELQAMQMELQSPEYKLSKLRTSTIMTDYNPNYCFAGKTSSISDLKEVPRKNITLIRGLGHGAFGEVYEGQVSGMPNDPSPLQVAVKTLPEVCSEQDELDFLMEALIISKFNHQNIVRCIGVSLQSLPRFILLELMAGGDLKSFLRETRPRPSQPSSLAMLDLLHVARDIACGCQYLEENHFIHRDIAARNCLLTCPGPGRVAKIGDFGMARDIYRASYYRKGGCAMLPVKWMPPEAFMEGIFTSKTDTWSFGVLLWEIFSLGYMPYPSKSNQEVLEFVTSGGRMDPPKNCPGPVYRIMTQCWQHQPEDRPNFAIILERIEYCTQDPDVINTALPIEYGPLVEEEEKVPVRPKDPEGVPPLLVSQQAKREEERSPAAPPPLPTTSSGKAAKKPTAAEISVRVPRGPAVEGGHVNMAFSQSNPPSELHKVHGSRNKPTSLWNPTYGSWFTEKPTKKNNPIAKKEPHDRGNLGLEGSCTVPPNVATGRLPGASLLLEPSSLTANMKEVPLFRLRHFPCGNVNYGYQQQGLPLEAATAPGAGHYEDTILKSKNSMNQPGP

As for `CNC(=O)c1cnn(C)c1Nc1nc(Nc2ccc3c(c2)CCOC(=O)N3C)ncc1Cl` [Example 1776, 5-[5-Chloro-2-(5-methyl-6-oxo-5,6,8,9-tetrahydro-7-oxa-5-aza-benzocyclohepten-2-ylamino)-pyrimidin-4-ylamino]-1-methyl-1H-pyrazole-4-carboxylic acid methylamide], the IC50 in experiment [1] (setting [3]) fell in the range of 1 to 10 µM; in experiment [2] (setting [4]), 0.1 to 1 µM.
Regarding `COc1cc2c(cc1Nc1ncc(Cl)c(Nc3ccc(N4CCOCC4)cc3OC)n1)CCN(Cc1ncco1)CC2` [Example 1180, 5-Chloro-N*4*-(2-methoxy-4-morpholin-4-yl-phenyl)-N*2*-(8-methoxy-3-oxazol-2-ylmethyl-2,3,4,5-tetrahydro-1H-benzo[d]azepin-7-yl)-pyrimidine-2,4-diamine], the IC50 in experiment [1] (setting [5]) is below 0.1 µM; in experiment [2] (setting [6]) it was above 10 µM.
Regarding `CN1C(=O)OCCc2cc(Nc3ncc(Cl)c(Nc4ccccc4-c4cc[nH]n4)n3)ccc21` [Example 1767, 2-{5-Chloro-4-[2-(1H-pyrazol-3-yl)-phenylamino]-pyrimidin-2-ylamino}-5-methyl-8,9-dihydro-5H-7-oxa-5-aza-benzocyclohepten-6-one], the IC50 in experiment [1] (setting [3]) was above 10 µM; in experiment [2] (setting [4]), 1 to 10 µM.
On to `COCCn1ccnc1-c1ccccc1Nc1nc(Nc2ccc3c(c2)C(C)(C)CCC(=O)N3)ncc1Cl` [Example 980, 7-(5-Chloro-4-{2-[1-(2-methoxy-ethyl)-1H-imidazol-2-yl]-phenylamino}-pyrimidin-2-ylamino)-5,5-dimethyl-1,3,4,5-tetrahydro-benzo[b]azepin-2-one], for which the IC50 in experiment [1] (setting [7]) is 0.1 to 1 µM; in experiment [2] (setting [8]), above 10 µM.
On to `CCN1C(=O)C(NC(=O)COC)CCc2ccc(Nc3ncc(Cl)c(Nc4c(F)cccc4C(=O)NC)n3)cc21` (centres unmarked) [Example 1498, 2-{5-Chloro-2-[1-ethyl-3-(2-methoxy-acetylamino)-2-oxo-2,3,4,5-tetrahydro-1H-benzo[b]azepin-8-ylamino]-pyrimidin-4-ylamino}-3-fluoro-N-methyl-benzamide], for which the IC50 in experiment [1] (setting [3]) is 0.1 to 1 µM; in experiment [2] (setting [4]) it was below 0.1 µM.
For `CNC(=O)c1ccccc1Nc1nc(Nc2cc3c(cc2OC)N(C)C(=O)OCC3)ncc1C(F)(F)F` [Example 1513, 2-[2-(3-Methoxy-5-methyl-6-oxo-5,6,8,9-tetrahydro-7-oxa-5-aza-benzocyclohepten-2-ylamino)-5-trifluoromethyl-pyrimidin-4-ylamino]-N-methyl-benzamide] the same measures were below 0.1 µM and 0.1 to 1 µM.
For “2-[5-Chloro-2-(3-methyl-4-oxo-2,3,4,5-tetrahydro-1H-benzo[d]azepin-7-ylamino)-pyrimidin-4-ylamino]-3,5,N-trimethyl-benzamide [Example 1818]”, in that order: 1 to 10 µM and 0.1 to 1 µM.
Take `CS(=O)(=O)N[C@@H]1CCCC[C@H]1Nc1nc(Nc2ccc3c(c2)CNCCS3(=O)=O)ncc1Cl` [Example 520, N-{(1R,2R)-2-[5-Chloro-2-(5,5-dioxo-6,7,8,9-tetrahydro-5H-5lambda*6*-thia-8-aza-benzoylcyclohepten-2-ylamino)-pyrimidin-4-ylamino]-cyclohexyl}-methanesulfonamide]: the IC50 in experiment [1] (setting [7]) is 0.1 to 1 µM; in experiment [2] (setting [8]), 1 to 10 µM.
`COCCN1CCc2cc(Nc3ncc(Cl)c(N[C@@H]4CCCC[C@H]4NS(C)(=O)=O)n3)c(OC)cc2CC1` [Example 111, N-((1R,2R)-2-{5-Chloro-2-[8-methoxy-3-(2-methoxy-ethyl)-2,3,4,5-tetrahydro-1H-benzo[d]azepin-7-ylamino]-pyrimidin-4-ylamino}-cyclohexyl)-methanesulfonamide]: the figures for the IC50 in experiment [1] (setting [9]) and in experiment [2] (setting [10]) were below 0.1 µM and above 10 µM, respectively.
In the case of `COc1cc2c(cc1Nc1ncc(Cl)c(Nc3ccccc3S(=O)(=O)N3CCC(O)C3)n1)CCN(CC(=O)N(C)C)CC2` (centres unmarked) [Example 1188, 2-(7-{5-Chloro-4-[2-(3-hydroxy-pyrrolidine-1-sulfonyl)-phenylamino]-pyrimidin-2-ylamino}-8-methoxy-1,2,4,5-tetrahydro-benzo[d]azepin-3-yl)-N,N-dimethyl-acetamide], the IC50 in experiment [1] (setting [5]) is below 0.1 µM; in experiment [2] (setting [6]), 1 to 10 µM.
Take `CNC(=O)c1cccc(Cl)c1Nc1nc(Nc2ccc3c(c2)CCOC(=O)N3C)ncc1Cl` [Example 1743, 3-Chloro-2-[5-chloro-2-(5-methyl-6-oxo-5,6,8,9-tetrahydro-7-oxa-5-aza-benzocyclohepten-2-ylamino)-pyrimidin-4-ylamino]-N-methyl-benzamide]: the IC50 was 1 to 10 µM in experiment [1] (setting [3]) and below 0.1 µM in experiment [2] (setting [4]).
Turning to `COc1cc2c(cc1Nc1ncc(Cl)c(N[C@H]3[C@@H](C(N)=O)[C@@H]4C=C[C@H]3C4)n1)CCN(CC1CC1)CC2` [Example 775, (1S,2S,3R,4R)-3-[5-Chloro-2-(3-cyclopropylmethyl-8-methoxy-2,3,4,5-tetrahydro-1H-benzo[d]azepin-7-ylamino)-pyrimidin-4-ylamino]-bicyclo[2.2.1]hept-5-ene-2-carboxylic acid amide], the values for the IC50 in experiment [1] (setting [7]) and in experiment [2] (setting [8]) were below 0.1 µM and above 10 µM, respectively.
For `COc1cc2c(cc1Nc1ncc(Cl)c(Nc3ccccc3S(=O)(=O)N(C)C)n1)CCN(CC(C)(F)F)CC2` [Example 824, 2-{5-Chloro-2-[3-(2,2-difluoro-propyl)-8-methoxy-2,3,4,5-tetrahydro-1H-benzo[d]azepin-7-ylamino]-pyrimidin-4-ylamino}-N,N-dimethyl-benzenesulfonamide] the same measures were below 0.1 µM and above 10 µM.
For “(1S,2S,3R,4R)-3-{5-Chloro-2-[7-(4-methyl-piperazin-1-yl)-6,7,8,9-tetrahydro-5H-benzocyclohepten-2-ylamino]-pyrimidin-4-ylamino}-bicyclo[2.2.1]hept-5-ene-2-carboxylic acid amide [Example 893]”, in that order: below 0.1 µM and 0.1 to 1 µM.
With `CCN1C(=O)CCCc2ccc(Nc3ncc(Cl)c(Nc4ccc(OCC#N)cc4)n3)cc21` [Example 1226, {4-[5-Chloro-2-(1-ethyl-2-oxo-2,3,4,5-tetrahydro-1H-1-benzazepin-8-ylamino)-pyrimidin-4-ylamino]-phenoxy}-acetonitrile], the IC50 in experiment [1] (setting [5]) was in the range of 0.1 to 1 µM; in experiment [2] (setting [6]), 1 to 10 µM.
For `COCCN1CCN(C)c2cc(Nc3ncc(Cl)c(Nc4ccc(N5CCOCC5)cc4OC)n3)c(OC)cc2C1` [Example 495, 5-Chloro-N*2*-[7-methoxy-4-(2-methoxy-ethyl)-1-methyl-2,3,4,5-tetrahydro-1H-benzo[e][1,4]diazepin-8-yl]-N*4*-(2-methoxy-4-morpholin-4-yl-phenyl)-pyrimidine-2,4-diamine], the IC50 in experiment [1] (setting [9]) is below 0.1 µM; in experiment [2] (setting [10]) it was above 10 µM.
For the compound `CCN1CCc2ccc(Nc3ncc([N+](=O)[O-])c(Nc4ccccc4C(=O)NC)n3)cc2CC1` [Example 193, 2-[2-(3-Ethyl-2,3,4,5-tetrahydro-1H-benzo[d]azepin-7-ylamino)-5-nitro-pyrimidin-4-ylamino]-N-methyl-benzamide], the IC50 is below 0.1 µM in experiment [1] (setting [9]) and 0.1 to 1 µM in experiment [2] (setting [10]).
For the compound `CNC(=O)c1sccc1Nc1nc(Nc2ccc3c(c2)N(CCOC)C(=O)CCC3)ncc1Cl` [Example 1478, 3-{5-Chloro-2-[1-(2-methoxy-ethyl)-2-oxo-2,3,4,5-tetrahydro-1H-benzo[b]azepin-8-ylamino]-pyrimidin-4-ylamino}-thiophene-2-carboxylic acid methylamide], the IC50 in experiment [1] (setting [3]) is 0.1 to 1 µM; in experiment [2] (setting [4]), below 0.1 µM.
For the compound `COc1c(Nc2ncc(Cl)c(N[C@@H]3CCCC[C@H]3NS(C)(=O)=O)n2)ccc2c1CCCC(N1CCOCC1)C2` (stereo partly drawn) [Example 949, N-{(1R,2R)-2-[5-Chloro-2-(1-methoxy-6-morpholin-4-yl-6,7,8,9-tetrahydro-5H-benzocyclohepten-2-ylamino)-pyrimidin-4-ylamino]-cyclohexyl}-methanesulfonamide], the figures for the IC50 in experiment [1] (setting [7]) and in experiment [2] (setting [8]) were below 0.1 µM and above 10 µM, respectively.
As for `CCN1C(=O)OCCc2ccc(Nc3ncc(Cl)c(Nc4ccsc4C(=O)NC)n3)cc21` [Example 1883, 3-[5-Chloro-2-(5-ethyl-6-oxo-5,6,8,9-tetrahydro-7-oxa-5-aza-benzocyclohepten-3-ylamino)-pyrimidin-4-ylamino]-thiophene-2-carboxylic acid methylamide], the IC50 in experiment [1] (setting [9]) and in experiment [2] (setting [10]) was below 0.1 µM each time.
In the case of `COc1cc2c(cc1Nc1ncc(Cl)c(N[C@H]3[C@@H](C(N)=O)[C@@H]4C=C[C@H]3C4)n1)N(C)C(=O)CNC2` [Example 743, (1S,2S3,R,4R)-3-[5-Chloro-2-(7-methoxy-1-methyl-2-oxo-2,3,4,5-tetrahydro-1H-benzo[e][1,4]diazepin-8-ylamino)-pyrimidin-4-ylamino]-bicyclo[2.2.1]hept-5-ene-2-carboxylic acid amide], the IC50 in experiment [1] (setting [7]) was below 0.1 µM; in experiment [2] (setting [8]), above 10 µM.
As for `COCCN1CCc2cc(Nc3ncc(Cl)c(Nc4cc(C(N)=O)ccc4OC)n3)c(OC)cc2CC1` [Example 1140, 3-{5-Chloro-2-[8-methoxy-3-(2-methoxy-ethyl)-2,3,4,5-tetrahydro-1H-benzo[d]azepin-7-ylamino]-pyrimidin-4-ylamino}-4-methoxy-benzamide], the IC50 is 1 to 10 µM in experiment [1] (setting [5]) and above 10 µM in experiment [2] (setting [6]).

The record behind these values is patent US8148391B2 (Cephalon, Inc., priority 2006, dated 2012).
